Experimental data taken from patent US12187713B2, “Immunomodulators, compositions and methods thereof” (Betta Pharmaceuticals Co., Ltd, priority 2019, dated 2025).

Target: PD-1/PD-L1 (Homo sapiens (Human), UniProt Q9NZQ7)
Experiment: PD-1/PD-L1 Binding Assay (Alphascreen)
Experimental: PD-1/PD-L1 Binding Assay (Alphascreen)
The assays were conducted in a standard black 384-well polystyrene plate with a final volume of 20 μL. Inhibitors were first serially diluted in DMSO and then added to the plate wells before the addition of other reaction components. The final concentration of DMSO in the assay was […]. Add 100 nL/well of compound to the 384 reaction plate (6008280, PerkinElmer) with Echo and centrifuge at 1000 rpm for 1 minute. Add 5 μL/well 4×PD-L1 solutions to the 384 reaction plate, centrifuge at 1000 rpm for 1 minute, and add 5 μL/well 4×PD-1 solutions, centrifuge at 1000 rpm for 1 minute, and incubate at 25° C. for 15 minutes. The concentrations of the compounds were 300, 100, 33.33, 11.11, 3.70, 1.23, 0.41, 0.137, 0.046, 0.015, 0 nM, respectively. Add 10 μL/well 2× Anti-6×His AlphaLISA Acceptor beads and Streptavidin Donor beads solution (PerkinElmer-AL356F) to the above 384 reaction plate, centrifuge at 1000 rpm for 1 minute, and incubate at 25° C. in the dark for 120 minutes. Read the AlphaLISA signal value using the Envision Reader. IC50 determination was performed by fitting the curve of percent control activity versus the log of the inhibitor concentration using the GraphPad Prism 8.0 software.

PD-1/PD-L1, sequence (Q9NZQ7 19-238): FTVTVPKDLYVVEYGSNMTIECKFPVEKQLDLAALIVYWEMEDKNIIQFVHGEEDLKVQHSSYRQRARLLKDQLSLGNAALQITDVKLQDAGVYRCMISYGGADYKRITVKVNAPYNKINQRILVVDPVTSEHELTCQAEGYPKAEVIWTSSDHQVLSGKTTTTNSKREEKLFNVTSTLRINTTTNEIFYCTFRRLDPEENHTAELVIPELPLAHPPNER

Row | IC50 (range symbols) [nM] | IC50 (numeric values) [nM] | Structure (SMILES)
1 | 0.1 to 5 |  | Cc1c(-c2nc3cc(CN4CCC[C@H]4C(=O)O)c(OC(F)F)cc3o2)cccc1-c1cccc(-c2nc3cc(CN4CC(N5CC(C)(O)C5)C4)cc(C#N)c3o2)c1C [Example 150, ((2-(3′-(7-cyano-5-((3-hydroxy-3-methyl-[1,3′-biazetidin]-1′-yl)methyl)benzo[d]oxazol-2-yl)-2,2′-dimethyl-[1,1′-biphenyl]-3-yl)-6-(difluoromethoxy)benzo[d]oxazol-5-yl)methyl)-L-proline]
2 | 0.1 to 5 |  | COc1nc(-c2cccc(-c3cccc(-c4nc5cc(CN6CCC[C@H]6C(=O)O)c(OC(F)F)cc5o4)c3C)c2C)ccc1CN1CCC[C@@H]1C [Example 277, ((6-(difluoromethoxy)-2-(3′-(6-methoxy-5-(((S)-2-methylpyrrolidin-1-yl)methyl)pyridin-2-yl)-2,2′-dimethyl-[1,1′-biphenyl]-3-yl)benzo[d]oxazol-5-yl)methyl)-L-proline]
3 |  | 0.3 | Cc1c(-c2nc3cc(CN[C@@H]4CCC[C@@H]4O)c(OC(F)F)cc3o2)cccc1-c1cccc(-c2nc3cc(CN4CCC[C@H]4C(=O)O)c(OC(F)F)cc3o2)c1C [Example 25, ((6-(difluoromethoxy)-2-(3′-(6-(difluoromethoxy)-5-((((1R,2S)-2-hydroxycyclopentyl)amino)methyl)benzo[d]oxazol-2-yl)-2,2′-dimethyl-[1,1′-biphenyl]-3-yl)benzo[d]oxazol-5-yl)methyl)-L-proline]
4 |  | 0.66 | Cc1c(-c2nc3cc(CN[C@H]4CCC[C@H]4O)c(OC(F)F)cc3o2)cccc1-c1cccc(-c2nc3cc(CN4CCC[C@H]4C(=O)O)c(OC(F)F)cc3o2)c1C [Example 27, ((6-(difluoromethoxy)-2-(3′-(6-(difluoromethoxy)-5-((((1S,2R)-2-hydroxycyclopentyl)amino)methyl)benzo[d]oxazol-2-yl)-2,2′-dimethyl-[1,1′-biphenyl]-3-yl)benzo[d]oxazol-5-yl)methyl)-L-proline]
5 |  | 0.61 | Cc1c(-c2nc3cc(CNCCO)c(OC(F)F)cc3o2)cccc1-c1cccc(-c2nc3cc(CN4CCC[C@H]4C(=O)O)c(OC(F)F)cc3o2)c1C [Example 7, ((6-(difluoromethoxy)-2-(3′-(6-(difluoromethoxy)-5-(((2-hydroxyethyl)amino)methyl)benzo[d]oxazol-2-yl)-2,2′-dimethyl-[1,1′-biphenyl]-3-yl)benzo[d]oxazol-5-yl)methyl)-L-proline]
6 | 5 to 50 |  | COc1nc(OCc2cccc(-c3cccc(-c4nc5cc(CN6CCC[C@H]6C(=O)O)c(OC(F)F)cc5o4)c3C)c2C)nc(OC)c1CN1CC(C)(C)C1 [Example 213, ((6-(difluoromethoxy)-2-(3′-(((5-((3,3-dimethylazetidin-1-yl)methyl)-4,6-dimethoxypyrimidin-2-yl)oxy)methyl)-2,2′-dimethyl-[1,1′-biphenyl]-3-yl)benzo[d]oxazol-5-yl)methyl)-L-proline]
7 |  | 0.59 | CCNCc1cc2nc(-c3cccc(-c4cccc(-c5nc6cc(CN7CCC[C@H]7C(=O)O)c(OC(F)F)cc6o5)c4C)c3C)oc2cc1OC(F)F [Example 21, ((6-(difluoromethoxy)-2-(3′-(6-(difluoromethoxy)-5-((ethylamino)methyl)benzo[d]oxazol-2-yl)-2,2′-dimethyl-[1,1′-biphenyl]-3-yl)benzo[d]oxazol-5-yl)methyl)-L-proline]
8 |  | 32 | Cc1c(-c2nc3cc(CN4CC5(C4)CC5(F)F)c(OC(F)F)cc3o2)cccc1-c1cccc(-c2nc3cc(CN4CCC[C@H]4C(=O)O)c(OC(F)F)cc3o2)c1C [Example 76, ((2-(3′-(5-((1,1-difluoro-5-azaspiro[2.3]hexan-5-yl)methyl)-6-(difluoromethoxy)benzo[d]oxazol-2-yl)-2,2′-dimethyl-[1,1′-biphenyl]-3-yl)-6-(difluoromethoxy)benzo[d]oxazol-5-yl)methyl)-L-proline]
9 | 5 to 50 |  | COc1nc(-c2cccc(-c3cccc(-c4nc5cc(CN6CCC[C@H]6C(=O)O)c(OC(F)F)cc5o4)c3C)c2C)ccc1CN1CCC(C(F)F)C1 (stereo partly drawn) [Example 275, ((6-(difluoromethoxy)-2-(3′-(5-((3-(difluoromethyl)pyrrolidin-1-yl)methyl)-6-methoxypyridin-2-yl)-2,2′-dimethyl-[1,1′-biphenyl]-3-yl)benzo[d]oxazol-5-yl)methyl)-L-proline]
10 | 5 to 50 |  | Cc1c(-c2nc3cc(CN4CCC[C@H]4C(=O)O)c(OC(F)F)cc3o2)cccc1-c1cccc(-c2cnc(CN3CCCC3)c(F)c2)c1CF [Example 269, ((6-(difluoromethoxy)-2-(3′-(5-fluoro-6-(pyrrolidin-1-ylmethyl)pyridin-3-yl)-2′-(fluoromethyl)-2-methyl-[1,1′-biphenyl]-3-yl)benzo[d]oxazol-5-yl)methyl)-L-proline]
11 |  | 1.3 | Cc1c(-c2cnc(CN3CCCC3)nc2)cccc1-c1cccc(-c2nc3cc(CN4CCC[C@H]4C(=O)O)c(OC(F)F)cc3o2)c1C [Example 281, ((6-(difluoromethoxy)-2-(2,2′-dimethyl-3′-(2-(pyrrolidin-1-ylmethyl)pyrimidin-5-yl)-[1,1′-biphenyl]-3-yl)benzo[d]oxazol-5-yl)methyl)-L-proline]
12 | 0.1 to 5 |  | Cc1c(-c2nc3cc(CN4CCC[C@@H]4C(=O)O)c(OC(F)F)cc3o2)cccc1-c1cccc(-c2nc3ccc(CN4CC(C)(C)C4)cc3o2)c1Cl [Example 111, ((2-(2′-chloro-3′-(6-((3,3-dimethylazetidin-1-yl)methyl)benzo[d]oxazol-2-yl)-2-methyl-[1,1′-biphenyl]-3-yl)-6-(difluoromethoxy)benzo[d]oxazol-5-yl)methyl)-D-proline]
13 | 0.1 to 5 |  | Cc1c(-c2nc3cc(CN4CCC[C@H]4C(=O)O)c(OC(F)F)cc3o2)cccc1-c1cccc(-c2ccc(CN3CCCC3)cc2F)c1Br [Example 221, ((2-(2′-bromo-2″-fluoro-2-methyl-4″- (pyrrolidin-1-ylmethyl)-[1,1′:3′,1″-terphenyl]-3-yl)-6-(difluoromethoxy)benzo[d]oxazol-5-yl)methyl)proline]
14 | 0.1 to 5 |  | Cc1c(-c2ccc3c(c2)CN(CCC(=O)O)C3)cccc1-c1cccc(-c2nc3cc(CN4CCC[C@H]4C(=O)O)c(OC(F)F)cc3o2)c1C [Example 290, ((2-(3′-(2-(2-carboxyethyl)isoindolin-5-yl)-2,2′-dimethyl-[1,1′-biphenyl]-3-yl)-6-(difluoromethoxy)benzo[d]oxazol-5-yl)methyl)-L-proline]
15 |  | 2 | Cc1c(-c2ccc(NC(=N)N)cc2)cccc1-c1cccc(-c2nc3cc(CN4CCC[C@H]4C(=O)O)c(OC(F)F)cc3o2)c1C [Example 225, ((6-(difluoromethoxy)-2-(4″-guanidino-2,2′-dimethyl-[1,1′:3,1″-terphenyl]-3-yl)benzo[d]oxazol-5-yl)methyl)-L-proline]
16 |  | 1.1 | Cc1c(-c2nc3cc(CNCCO)c(OCc4cncc(C#N)c4)cc3o2)cccc1-c1cccc(-c2nc3cc(CN4CCC[C@H]4C(=O)O)c(OC(F)F)cc3o2)c1C [Example 120, ((2-(3′-(6-((5-cyanopyridin-3-yl)methoxy)-5-(((2-hydroxyethyl)amino)methyl)benzo[d]oxazol-2-yl)-2,2′-dimethyl-[1,1′-biphenyl]-3-yl)-6-(difluoromethoxy)benzo[d]oxazol-5-yl)methyl)-L-proline]
17 | 0.1 to 5 |  | Cc1c(-c2nc3c(o2)CN(CCO)CC3)cccc1-c1cccc(-c2nc3cc(CN4CCC[C@H]4C(=O)O)c(OC(F)F)cc3o2)c1C [Example 189, ((6-(difluoromethoxy)-2-(3′-(5-(2-hydroxyethyl)-4,5,6,7-tetrahydrooxazolo[5,4-c]pyridin-2-yl)-2,2′-dimethyl-[1,1′-biphenyl]-3-yl)benzo[d]oxazol-5-yl)methyl)-L-proline]
18 | 5 to 50 |  | Cc1c(-c2nc3c(o2)CCN(CCCF)C3)cccc1-c1cccc(-c2nc3cc(CN4CCC[C@H]4C(=O)O)c(OC(F)F)cc3o2)c1C [Example 200, ((6-(difluoromethoxy)-2-(3′-(5-(3-fluoropropyl)-4,5,6,7-tetrahydrooxazolo[4,5-c]pyridin-2-yl)-2,2′-dimethyl-[1,1′-biphenyl]-3-yl)benzo[d]oxazol-5-yl)methyl)proline]
19 | 0.1 to 5 |  | COc1nc(-c2cccc(-c3cccc(-c4nc5cc(CN6CCC[C@H]6C(=O)O)c(OC(F)F)cc5o4)c3C)c2C)ccc1CN1CC(C)(C)C1 [Example 271, ((6-(difluoromethoxy)-2-(3′-(5-((3,3-dimethylazetidin-1-yl)methyl)-6-methoxypyridin-2-yl)-2,2′-dimethyl-[1,1′-biphenyl]-3-yl)benzo[d]oxazol-5-yl)methyl)-L-proline]
20 | 0.1 to 5 |  | Cc1c(-c2ccc3c(c2)CN(CC(=O)O)C3)cccc1-c1cccc(-c2nc3cc(CN4CCC[C@H]4C(=O)O)c(OC(F)F)cc3o2)c1C [Example 291, ((2-(3′-(2-(carboxymethyl)isoindolin-5-yl)-2,2′-dimethyl-[1,1′-biphenyl]-3-yl)-6-(difluoromethoxy)benzo[d]oxazol-5-yl)methyl)-L-proline]
21 | 0.1 to 5 |  | Cc1c(-c2nc3cc(CN4CCC[C@H]4C(=O)O)c(OC(F)F)cc3o2)cccc1-c1cccc(-c2nc3cc(CN4CC(C)(CN(C)C)C4)cc(C#N)c3o2)c1C [Example 159, ((2-(3′-(7-cyano-5-((3-((dimethylamino)methyl)-3-methylazetidin-1-yl)methyl)benzo[d]oxazol-2-yl)-2,2′-dimethyl-[1,1′-biphenyl]-3-yl)-6-(difluoromethoxy)benzo[d]oxazol-5-yl)methyl)-L-proline]
